Results as given in publication PMC8686256, “DZNep promotes mouse bone defect healing via enhancing both osteogenesis and osteoclastogenesis” (Stem Cell Research & Therapy, 2021).

Experiments:
Type in all cases: cell-based, mouse
MAPKs signaling pathways = assay: Western blotting of MAPKs signaling pathways; settings: RAW264.7, 25 nM pretreatment, vs control
Procedure: (§1) To explore the variation of the proteins on long-term activated signaling, BMMs were cultured in α-MEM containing M-CSF (30 ng/ml) and RANKL (50 ng/ml) at a density of 2 × 10^5 cells/well on 6-well plates. After 24 h, the BMMs were treated with or without 25 nM DZNep for 0, 1, 3, and 5 days, and total protein was obtained, respectively, on these specific time points. To determine the effect of DZNep on the protein of short-time activated phosphorylated, RAW264.7 cells were cultured in α-MEM at a density of 5 × 10^5 cells/well on 6-well plates. One day later, the cells were treated with the serum-free α-MEM in the presence or absence of DZNEP for 3 hand then stimulated with 50 ng/mL RANKL for 0, 10, 20, 30, and 60 min. To determine the efficiency of EZH2 shRna, BMMs were cultured in α-MEM at a density of 5 × 10^5 cells/well on 6-well plates. One day later, the cells were treated with negative control shRNA or different EZH2 shRNA for 2 days. To determine the efficiency of Foxc1 siRna, BMMs were cultured in α-MEM at a density of 5 × 10^5 cells/well on 6-well plates. […] After TBST wash for 3 times, the secondary fluorescence antibodies were incubated without light for 1 h at room temperature and the reactivity was visualized by using Odyssey V3.0 image scanning (Li-COR. Inc., Lincoln, NE, USA). […]

EZH2 and H3K27me3 [1] = assay: Western blotting of EZH2 and H3K27me3 in BMMs; settings: 25 nM; 0, 1, 3, 5 days with RANKL, vs control
Procedure: as §1

EZH2 and H3K27me3 [2] = assay: Western blotting of EZH2, H3K27me3 and GSK-3β in BMSC
NF-κB signaling pathway = assay: Western blotting and immunofluorescence of NF-κB signaling pathway
Procedure: as §1

Compound: Nc1nccc2c1ncn2C1C=C(CO)C(O)C1O (stereo not drawn) [DZNep, 3-Deazaneplanocin]
- phosphorylation of JNK, p38, and ERK (MAPKs signaling pathways): comparable
- EZH2 and H3K27me3 expression in BMMs (EZH2 and H3K27me3 [1]): decreased at a time manner
- EZH2 and H3k27me3 expression in BMSC (EZH2 and H3K27me3 [2]; 0, 25, 50, 100 nM, 24 h, vs control): dose-dependent decreased
- phosphorylation level of GSK-3β (EZH2 and H3K27me3 [2]; BMSC): no significant change
- NF-κB nuclear translocation (NF-κB signaling pathway; 25 nM pretreatment, then RANKL): enhancement of NF-κB nuclear translocation
- phosphorylation of IKK, IκB, and p65 (NF-κB signaling pathway; RAW264.7, 25 nM pretreatment, RANKL for specific times): further promoted over time
